Data set [1] concerns C. albicans. Put plainly: Antibiotic activity, MIC. The data set is classed as cell-based. As to conditions: Candida albicans. An excerpt:
(§1) Thus, it is possible to achieve an antimicrobial steroid with or without squalamine-like pharmacological activity.

The subject of data set [2] is E. coli. Put plainly: Antibiotic activity, MIC. It is filed as cell-based. The following applies: Escherichia coli.
Text: as §1

In data set [3] the test system is P. aerug. In words: Antibiotic activity, MIC. The data set is classed as cell-based.
Text: as §1

Data set [4] concerns S. aureus. In words: Antibiotic activity, MIC. The following applies: Staphylococcus aureus. It is filed as cell-based.
Text: as §1

Data set [5] in a line: MTT assay (Table II). The following applies: read-out: Minimum Effective Concentration, MTT assay. The data set is classed as cell-based. An excerpt:
(§2) As set forth in Table II, which follows Table I, the activities of natural and synthetic aminosterols in the different assays vary. In light of the foregoing, it is now possible to screen for steroids with or without squalamine-like pharmacological activity.
For orientation: Tetrazolium dyes change colour on reduction, which living cells bring about.

Data set [6] deals with human microvascular cells. Put plainly: Inhibition of endothelial cell cord formation in vitro. The data set is classed as cell-based. The following applies: Homo sapiens, Endothelial cell; Table II; read-out: Minimum Effective Concentration, Cord Formation. An excerpt: Endothelial cells have the capacity in vitro to form tubular aggregates resembling capillaries in various early stages of formation. This conversion occurs under relatively specific conditions, in which essential growth factors along with an effective substratum are provided. It has been shown that both the interaction of growth factors with the endothelial cell and its attachment to a substratum activate the NHE. The activation of this exchanger is believed to be required for subsequent morphologic transformation of the endothelial cell into a multicellular tubular structure.
To assess the effect of compounds on the cord-like structures formed by human microvascular cells when plated in the presence of VEGF (Vascular Endothelial Growth Factor) and basic fibroblast growth factor on a collagen matrix, a standard cord formation assay was used.

The test system of data set [7] is Lic. In words: MTT Lic (Table II). It is filed as cell-based. The following applies: read-out: Minimum Effective Concentration, MTT Lic.
Text: as §2

Data set [8] has as its system vitelline capillaries. In words: Chick embryo vitelline capillary regression assay. The data set is classed as in vivo. The method, then: Using the chick embryo vitelline capillaries assay, compounds were tested for their ability to induce capillary regression. Each compound was applied in 0.1 ml of 15% Ficol 400 and PBS onto the embryo, and vascular regression was assessed after 60 minutes.
The 3-day chick embryo consists of an embryonic disc from which numerous vessels emerge and return, forming a "FIG. 8"-shaped structure--the embryo in the center with vascular loops extending outward over both poles. […] Following a lag period of around 15 minutes, the constriction of continuity between capillary and secondary vessels, generally on the "venous" side, was observed. Continued pulsatile blood flow progressed, resulting in a "swelling" of the blind tube, followed by a pinching off of the remaining connection and formation of an enclosed vascular sac resembling a "blood island." This process progressed until only the largest vessels remained intact.

Data set [9] has as its system Xenopus tadpole, stage 59-60. In words: Tadpole assay. It is filed as in vivo, Xenopus laevis. The following applies: 10 μg/ml; for pharmacological response in tadpole (words): stage 59-60. An excerpt:
For example, substances that destroy all of the animal's epithelium, both adult and embryonic, could be regarded as toxic.
The volume of liquid is sufficient for the animal to swim freely and drink from the solution. […] If the volume of liquid is not sufficient to permit oral intake, the effects that are observed would result from absorption through the surface epithelium.
In another embodiment of this assay, a solution of a compound in water can be injected directly into the abdomen of the animal using standard techniques.
After an amount of time, typically about 60 minutes, the occlusion of blood flow through capillaries in the tadpole's tail are observed under an inverted microscope at a magnification of roughly 100×.
In the assay, each of the steroids was dissolved in 100 ml of distilled water at a concentration of 10 μg/ml. Stage 59-60 Xenopus tadpoles were introduced and evaluated by light microscopy and gross observation 1 hour later.

Data set [10] deals with Human ovarian carcinoma SKOV3. Put plainly: Growth inhibition in vitro (Table 7). The data set is classed as cell-based. The protocol: As set forth in Table 7 below, all malignant tumors evaluated in tissue culture, endothelial cells and vascular smooth muscle cells were sensitive to inhibition. Thus, compound 1436 has application in the control of growth factor dependent proliferation of many types of tissue.
Using the assay described above, the anticancer effects of compound 1437 against several cancer lines was assessed.

The nature of data set [11]: Effect on fasting blood glucose in mice. The data set is classed as in vivo, mouse. The following applies: i.v. The method, then:
To study the effect of steroid administrator or the NHE responsible for secretion of insulin, several of the aminosterols from shark liver were administered to fasting mice. Male CD-1 mice were assigned to one of four treatment groups. Whole blood glucose was tested using glucometer (Lifescan Glucometer II and One Touch test strips). Statistical analysis was via one-way analysis of variance (ANOVA) followed by subsequent Bonferonni's t-test.

Converted amounts (≈) assume the structure as drawn. “Also recorded” adds a separate entry of the source.

For the compound `CC(O)[C@H]1CC[C@H]2[C@@H]3CC[C@H]4C[C@@H](NCCCNCCCCN)CC[C@]4(C)[C@H]3CC[C@]12C` (some centres unmarked), the MIC (as a rule, the lowest concentration found to suppress growth) in [1] was 64 µg/mL (≈ 143 µM); in [2], 32 to 64 µg/mL (≈ 71.5 to 143 µM); in data set [3] it was 256 µg/mL (≈ 572 µM); in [4], 4 µg/mL (≈ 8.93 µM).

As to `CC(O)[C@H]1CC[C@H]2[C@@H]3CC[C@H]4C[C@H](NCCCNCCCCN)CC[C@]4(C)[C@H]3CC[C@]12C` (some centres unmarked), the MIC in data set [1] was determined as 128 µg/mL (≈ 286 µM); in data set [2], 64 µg/mL (≈ 143 µM); in data set [3], 128 µg/mL (≈ 286 µM); in [4], 16 µg/mL (≈ 35.7 µM).

With `COC(=O)CCC(C)[C@H]1CCC2C3C(CC[C@@]21C)[C@@]1(C)CC[C@@H](NCCN)C[C@H]1C[C@H]3O` (some centres unmarked), in [5], the minimal effective concentration is 2.5 µg/mL.

For `CC(CC[C@@H](OS(=O)(=O)O)C(C)C)[C@H]1CCC2C3C(CC[C@@]21C)[C@@]1(C)CC[C@H](NCCCNCCCCN)C[C@@H]1C[C@H]3O` (some centres unmarked), the results for the minimal effective concentration in data set [6] and in data set [7] were 0.01 to 0.1 µg/mL and 13.2 µg/mL, respectively.

On to `CC(CC[C@@H](OS(=O)(=O)O)C(C)C)[C@H]1CCC2C3C(CC[C@@]21C)[C@@]1(C)CC[C@H](NCCCNCCCCNCCCN)C[C@@H]1C[C@H]3O` (some centres unmarked), for which the minimal effective concentration in data set [7] was determined as 16.7 µg/mL.

In the case of `CC(COS(=O)(=O)O)C(=O)CC[C@@H](C)[C@H]1CC[C@H]2[C@@H]3[C@H](O)C[C@H]4C[C@@H](NCCCNCCCCN)CC[C@]4(C)[C@H]3CC[C@]12C` (single isomer, unassigned) [Compound 1360], the “effect on circulating embryonic blood” value in data set [8] (within 20 minutes) is “the blood circulating through the embryonic vessels exhibited a brighter red color”. The “pharmacological response in tadpole (words)” value (“pharmacological response” below) in data set [9] was “Swelling and lysis of certain erythrocytes occurred, resulting in accumulation of nuclei within certain small vessels of the tail. Subsequent tissue breakdown occurred in areas of tail surrounding these nuclear plugs”; in data set [9] (listed as compound 1360), “extensive vasocclusion occurred within 60 minutes throughout the tail”.

Turning to `CC(C)C(CO)(CC[C@@H](C)[C@H]1CC[C@H]2[C@@H]3[C@H](O)C[C@H]4C[C@@H](NCCCNCCCCN)CC[C@]4(C)[C@H]3CC[C@]12C)OS(=O)(=O)O` (single isomer, unassigned) [Compound 1437], in data set [9], the “tissues or functions not affected in tadpole” value is “Animal was otherwise active, with little tissue breakdown noted”; the “pharmacological response” value is “Epithelium covering the embryonic portions of the animal, such as the tail and antennae, began to slough off in sheets; also recorded: dramatic effect on the embryonic epithelium covering the tadpole tale”. Further, the “anticancer activity” value in data set [10] is “exhibit anticancer activity”. Further, the “blood glucose effect” value in data set [11] is given as “caused hyperglycemia in mice”.

Take `CC(C)CCC[C@@H](C)[C@H]1CC[C@H]2[C@@H]3[C@H](O)C[C@H]4C[C@H](NCCCNCCCCN)CC[C@]4(C)[C@H]3CC[C@]12C` [Compound 370]: in data set [9], the “pharmacological response” value was “pharmacologic activity similar to that seen for FX 3”.

For `CC(C)CCC[C@@H](C)[C@H]1CC[C@H]2[C@@H]3[C@H](O)C[C@H]4C[C@@H](NCCCNCCCCN)CC[C@]4(C)[C@H]3CC[C@]12C` [Compound 371], the “pharmacological response” value in data set [9] is given as “effects like those produced by compound 1436”.

On to `COC(=O)CC[C@@H](C)[C@H]1CC[C@H]2[C@@H]3[C@H](O)C[C@@H]4C[C@@H](NCCN)CC[C@]4(C)[C@H]3CC[C@]12C` [Compound 409], for which the “pharmacological response” value in data set [9] is reported as “functionally similar to compound 1437”.

In the case of `COC(=O)CC[C@@H](C)[C@H]1CC[C@H]2[C@@H]3[C@H](O)C[C@@H]4C[C@H](NCCN)CC[C@]4(C)[C@H]3CC[C@]12C` [Compound 410], the “pharmacological response” value in data set [9] is recorded as “functionally similar to compound 1437”.

`C[C@H](CCC(=O)O)[C@H]1CC[C@H]2[C@@H]3[C@H](O)C[C@@H]4C[C@H](NCCCNCCCCNCCCN)CC[C@]4(C)[C@H]3CC[C@]12C` [Compound 412]: the “pharmacological response” value in [9] is on record as “pharmacologic activity similar to that seen for FX 3”.

On to `C[C@H](CCC(=O)O)[C@H]1CC[C@H]2[C@@H]3[C@H](O)C[C@@H]4C[C@@H](NCCCNCCCCNCCCN)CC[C@]4(C)[C@H]3CC[C@]12C` [Compound 413], for which the “pharmacological response” value in [9] is given as “effects like those produced by compound 1436”.

Turning to `C[C@H](CCC(=O)O)[C@H]1CC[C@H]2[C@@H]3[C@H](O)C[C@@H]4C[C@H](NCCN)CC[C@]4(C)[C@H]3CC[C@]12C` [Compound 414], the “pharmacological response” value in [9] is “pharmacologic activity similar to Fraction 1”.

`C[C@H](CCC(=O)O)[C@H]1CC[C@H]2[C@@H]3[C@H](O)C[C@@H]4C[C@@H](NCCN)CC[C@]4(C)[C@H]3CC[C@]12C` [Compound 415]: the “activity on vitelline capillaries” value in data set [8] is recorded as “especially active”.

As to `COC(=O)CC[C@@H](C)[C@H]1CC[C@H]2[C@@H]3CC[C@@H]4C[C@H](NCCN)CC[C@]4(C)[C@H]3C[C@H](O)[C@]12C` [Compound 416], the “pharmacological response” value in data set [9] is reported as “functionally similar to compound 1437”.

Turning to `COC(=O)CC[C@@H](C)[C@H]1CC[C@H]2[C@@H]3C[C@@H](O)[C@H]4C[C@H](NCCN)CC[C@]4(C)[C@H]3CC[C@]12C` [Compound 431], the “pharmacological response” value in [9] is on record as “functionally similar to compound 1437”.

Consider `COC(=O)CC[C@@H](C)[C@H]1CC[C@H]2[C@@H]3C[C@@H](O)[C@H]4C[C@@H](NCCN)CC[C@]4(C)[C@H]3CC[C@]12C` [Compound 432], for which the “pharmacological response” value in data set [9] is “functionally similar to compound 1437”.

For `C[C@H](CCC(=O)O)[C@H]1CC[C@H]2[C@@H]3C[C@@H](O)[C@H]4C[C@@H](NCCN)CC[C@]4(C)[C@H]3CC[C@]12C` [Compound 433], the “pharmacological response” value in data set [9] was “functionally similar to compound 1437”.

`COC(=O)CC[C@@H](C)[C@H]1CC[C@H]2[C@@H]3CC[C@H]4C[C@H](NCCCNCCCCNCCCN)CC[C@]4(C)[C@H]3CC[C@]12C` [Compound 458]: the “pharmacological response” value in data set [9] is on record as “pharmacologic activity similar to that seen for FX 3”.

As to `COC(=O)CC[C@@H](C)[C@H]1CC[C@H]2[C@@H]3CC[C@H]4C[C@@H](NCCCNCCCCNCCCN)CC[C@]4(C)[C@H]3CC[C@]12C` [Compound 459], the “pharmacological response” value in data set [9] is “pharmacologic activity similar to that seen for FX 3”.

Regarding `COC(=O)CC[C@@H](C)[C@H]1CC[C@H]2[C@@H]3C[C@@H](O)[C@H]4C[C@H](NCCCNCCCCNCCCN)CC[C@]4(C)[C@H]3CC[C@]12C` [Compound 465], the “pharmacological response” value in data set [9] is on record as “pharmacologic activity similar to that seen for FX 3”.

For `COC(=O)CC[C@@H](C)[C@H]1CC[C@H]2[C@@H]3C[C@@H](O)[C@H]4C[C@@H](NCCCNCCCCNCCCN)CC[C@]4(C)[C@H]3CC[C@]12C` [Compound 466], in [9], the “pharmacological response” value is reported as “pharmacologic activity similar to that seen for FX 3”.

In the case of `CC(C)CCC[C@@H](C)[C@H]1CC[C@H]2[C@@H]3[C@H](O)C[C@H]4C[C@H](N)CC[C@]4(C)[C@H]3CC[C@]12C` [Compound 1363], the “pharmacological response” value in [9] is “pharmacologic activity similar to Fraction 1”.

Take `CC(C)CCC[C@@H](C)[C@H]1CC[C@H]2[C@@H]3CC[C@H]4C[C@@H](NCCCNCCCCNCCCN)CC[C@]4(C)[C@H]3CC[C@]12C` [drawing 86]: in data set [5], the minimal effective concentration came out at 3 µg/mL.

Consider `CC(C)CCC[C@@H](C)[C@H]1CC[C@H]2[C@@H]3[C@H](O)C[C@H]4C[C@H](NCCCNCCCCN)CC[C@]4(C)[C@H]3CC[C@]12C` [drawing 94], for which the minimal effective concentration in data set [5] was 4 µg/mL.

These data come from patent US5994336A, “Method of inhibiting proliferation of cells by administering an aminosterol compound” (priority 1995, dated 1999).
